Each block holds one compound with its values, some of them ahead of it.
Columns and labels:
[1] = molecular target: T1, hFADS6 (6-His-hFADS6; human FAD synthase isoform 6) (Homo sapiens, UniProt Q8NFF5); test: fluorimetric FAD synthesis, Michaelis-Menten fit; assay type: biochemical; settings: 5 mM MgCl2, 50 mM Tris/HCl pH 7.5, 37 °C
T1 construct: gene FLAD1; 320 residues (963 bp cDNA) from Met268 of FADS1, PAPS reductase domain plus N-terminal extension; E. coli Rosetta(DE3)pLysS; monomer

[2] = molecular target: T1, hFADS6 (6-His-hFADS6; human FAD synthase isoform 6); test: fluorimetric FAD pyrophosphorolysis; assay type: biochemical; settings: NaPPi, 5 mM MgCl2, 50 mM Tris/HCl pH 7.5, 37 °C; reverse reaction; detection limit of the instrument; read-out: KmFAD
[3] = molecular target: T1, hFADS6 (6-His-hFADS6; human FAD synthase isoform 6); test: absorbance spectrum and HPLC of acid-extracted flavin from purified protein; assay type: binding; settings: co-purified from E. coli; tightly but not covalently bound
[4] = molecular target: human FAD synthase isoform 2 (6-His-hFADS2) (human); test: SEC-MALS; tandem HPLC-GPC/LS on a Superose 12 10/300 GL column, 0.5 mL/min, 40 mM Hepes/Na, 150 mM NaCl, pH 7.4; MALS masses taken from the peaks run with 1 mM DTT

T1 sequence (Q8NFF5 268-587): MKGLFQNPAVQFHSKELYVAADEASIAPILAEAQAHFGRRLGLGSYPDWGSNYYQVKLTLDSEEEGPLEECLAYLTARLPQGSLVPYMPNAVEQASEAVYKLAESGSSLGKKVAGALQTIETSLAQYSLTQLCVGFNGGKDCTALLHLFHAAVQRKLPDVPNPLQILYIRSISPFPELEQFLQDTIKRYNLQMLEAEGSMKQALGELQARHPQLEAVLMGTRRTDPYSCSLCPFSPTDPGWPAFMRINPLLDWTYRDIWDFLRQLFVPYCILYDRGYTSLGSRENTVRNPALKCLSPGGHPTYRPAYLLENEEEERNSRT
Chain of human FAD synthase isoform 2 (6-His-hFADS2) (enzyme) (Q8NFF5 98-587): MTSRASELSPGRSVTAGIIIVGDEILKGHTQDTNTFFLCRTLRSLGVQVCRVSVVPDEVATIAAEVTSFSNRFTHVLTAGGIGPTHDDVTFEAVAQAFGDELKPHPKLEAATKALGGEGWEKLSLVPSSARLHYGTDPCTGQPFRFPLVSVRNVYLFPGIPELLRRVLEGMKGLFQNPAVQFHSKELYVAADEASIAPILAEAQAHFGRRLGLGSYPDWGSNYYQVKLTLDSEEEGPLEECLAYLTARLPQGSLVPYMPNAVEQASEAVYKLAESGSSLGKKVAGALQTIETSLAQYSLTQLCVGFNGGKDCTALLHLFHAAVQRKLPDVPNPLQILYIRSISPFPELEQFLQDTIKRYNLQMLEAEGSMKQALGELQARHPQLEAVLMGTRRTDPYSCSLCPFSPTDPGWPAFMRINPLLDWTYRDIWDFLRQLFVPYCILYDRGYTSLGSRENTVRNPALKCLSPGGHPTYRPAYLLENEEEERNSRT

- Km ([1]; 2 µM FMN, read-out: KmATP (apparent)): 6.91 ± 0.51 µM
Compound: Nc1ncnc2c1ncn2[C@@H]1O[C@H](COP(=O)(O)OP(=O)(O)OP(=O)(O)O)[C@@H](O)[C@H]1O [ATP]

- Km [2]: < 100 nM
Compound: Cc1cc2nc3c(=O)[nH]c(=O)nc-3n(C[C@H](O)[C@H](O)[C@H](O)COP(=O)(O)OP(=O)(O)OC[C@H]3O[C@@H](n4cnc5c(N)ncnc54)[C@H](O)[C@@H]3O)c2cc1C [FAD]
- FAD/monomer ratio [3]: demonstrates that the bound cofactor is FAD

- Km ([1]; 100 µM ATP, read-out: KmFMN (apparent)): 0.13 ± 0.01 µM
Compound: Cc1cc2nc3c(=O)[nH]c(=O)nc-3n(C[C@H](O)[C@H](O)[C@H](O)COP(=O)(O)O)c2cc1C [FMN]

- stoichiometry N [4]: 2
Compound: human FAD synthase isoform 2 (6-His-hFADS2) (enzyme)
